In US5077281A, “Novel use of taurolin” (priority 1985, dated 1991):
Values after ≈ are worked out from the molar mass of the structure shown. “Also recorded” adds a separate entry of the source.

Tests used:
[1] = system: pooled plasma of various experimental persons; experiment: Quick test on pooled plasma mixed with taurolin; format: biochemical, human; conditions: for Quick test (%): 30 minutes
Experimental: (§1) Therefore, in comparison with known anti-coagulants, the use of taurolin has the advantage that a sufficient blood coagulatability always still remains and, therefore, an overdosing is not possible.
(§2) Samples of, in each case, 5 ml. of a pooled plasma of various experimental persons were mixed with increasing amounts of taurolin, namely, with amounts of 0 (1), 10 (2), 20 (3), 30 (4), 40 (5) and 50 (6) mg. of taurolin/5 ml. plasma (the figures given in brackets give the sample numbers).
(§3) The Quick test and the PTT test was carried out for the samples 1 to 6 and the following results (30 minutes) obtained (Table 1): […]

[2] = system: pooled plasma of various experimental persons; experiment: PTT test on pooled plasma mixed with taurolin; format: biochemical, human; conditions: for PTT: 30 minutes
Experimental: as §1, §2, §3

coagulation factor II = experiment: coagulation factor analysis in plasma; format: biochemical, human
coagulation factor V = experiment: coagulation factor analysis in plasma; format: biochemical, human
coagulation factor VII = experiment: coagulation factor analysis in plasma; format: biochemical, human
coagulation factor X = experiment: coagulation factor analysis in plasma; format: biochemical, human
coagulation factor IX = experiment: coagulation factor analysis in plasma; format: biochemical, human
coagulation factor XI = experiment: coagulation factor analysis in plasma; format: biochemical, human
coagulation factor XII = biological target: T1, coagulation factor XII (Homo sapiens, UniProt P00748); experiment: coagulation factor analysis in plasma; format: biochemical
T1 construct: clotting factor activity assay
T1 sequence (P00748 20-615): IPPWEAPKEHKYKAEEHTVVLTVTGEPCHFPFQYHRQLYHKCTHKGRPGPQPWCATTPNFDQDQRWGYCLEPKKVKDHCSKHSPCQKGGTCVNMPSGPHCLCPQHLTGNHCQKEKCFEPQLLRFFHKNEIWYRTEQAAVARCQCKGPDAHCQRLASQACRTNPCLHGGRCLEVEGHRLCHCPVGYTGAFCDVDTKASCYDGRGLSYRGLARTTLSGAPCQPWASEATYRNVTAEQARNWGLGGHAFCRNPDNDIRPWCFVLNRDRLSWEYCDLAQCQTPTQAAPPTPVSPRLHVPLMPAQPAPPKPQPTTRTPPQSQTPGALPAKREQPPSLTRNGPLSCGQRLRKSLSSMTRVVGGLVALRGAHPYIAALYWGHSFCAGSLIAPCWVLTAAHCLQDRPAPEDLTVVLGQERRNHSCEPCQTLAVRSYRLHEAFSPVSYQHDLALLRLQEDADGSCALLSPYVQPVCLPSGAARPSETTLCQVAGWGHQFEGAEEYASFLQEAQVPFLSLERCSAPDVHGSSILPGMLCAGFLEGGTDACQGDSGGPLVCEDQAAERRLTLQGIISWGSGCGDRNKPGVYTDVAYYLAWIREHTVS

coagulation factor VIII = experiment: coagulation factor analysis in plasma; format: biochemical, human
fresh blood = experiment: fibrin deposition on taurolin-treated cellulose acetate foils in contact with fresh blood; set-up: species or system human
solubility = format: physicochemical; conditions: 50 mg./5 ml. blood plasma corresponds to a 1% solution; read-out: solubility limit
antithrombin III = experiment: function of antithrombin III; format: biochemical
blood plasma [3] = experiment: suppression of blood coagulation on addition to blood plasma; format: biochemical, human; conditions: 5 ml. pooled plasma, up to max. 50 mg.
Experimental: as §1, §2

[4] = system: blood coagula on the artificial surface; experiment: deposition of blood coagula on taurolin-contacted artificial surface in vivo; conditions: after contact of synthetic resin or metal surface with taurolin, implantation in organism with blood flow
Source text: Therefore, this coagulation action can serve for the use of the taurolin for the treatment of surfaces of medical apparatus which are temporarily introduced into the blood stream, such as e.g. vein catheters (which, untreated, tend to blockage due to blood coagula which again represents a breeding place for bacteria, whereby the danger of a sepsis is brought about). The treatment of the apparatus can be carried out e.g. with an aqueous taurolin solution, especially a 1% aqueous taurolin solution. By means of an intermittent rinsing of vascular catheters, it is, in this way e.g. possible to prevent the coagula formation on the catheter tips.

[5] = cited from earlier work
blood plasma [6] = conditions: "Taurolin", Bruckner and Pfirrmann 1985; cited from earlier work
[7] = 10 mg. taurolin/5 ml. plasma (sample 2)
[8] = 20 mg. taurolin/5 ml. plasma (sample 3)
[9] = 30 mg. taurolin/5 ml. plasma (sample 4)
[10] = 40 mg. taurolin/5 ml. plasma (sample 5)
[11] = 50 mg. taurolin/5 ml. plasma (sample 6)
[12] = maximum possible dosaging in the blood

O=S1(=O)CCN(CN2CCS(=O)(=O)NC2)CN1 [taurolin, 4,4'-Methylene-bis-(tetrahydro-2H-1,2,4-thiadiazine-1,1-dioxide)]
Quick test (%) [1, 7]: 65%
Quick test (%) [1, 8]: 53%
Quick test (%) [1, 9]: 44%
Quick test (%) [1, 10]: 39%
Quick test (%) [1, 11]: 35%
Quick value (lowest reached) [1, 12]: ≥ 20%
PTT [2, 7]: 38.0 s
PTT [2, 8]: 43.0 s
PTT [2, 9]: 48.8 s
PTT [2, 10]: 55.9 s
PTT [2, 11]: 61.8 s
PTT value (highest reached) [2, 12]: ≤ 60 s
coagulation factor II (coagulation factor II; [7]): 96%
coagulation factor II (coagulation factor II; [8]): 87%
coagulation factor II (coagulation factor II; [9]): 90%
coagulation factor II (coagulation factor II; [10]): 75%
coagulation factor II (coagulation factor II; [11]): 74%
coagulation factor V (coagulation factor V; [7]): 121%
coagulation factor V (coagulation factor V; [8]): 110%
coagulation factor V (coagulation factor V; [9]): 92%
coagulation factor V (coagulation factor V; [10]): 81%
coagulation factor V (coagulation factor V; [11]): 79%
coagulation factor VII (coagulation factor VII; [7]): 79%
coagulation factor VII (coagulation factor VII; [8]): 74%
coagulation factor VII (coagulation factor VII; [9]): 74%
coagulation factor VII (coagulation factor VII; [10]): 77%
coagulation factor VII (coagulation factor VII; [11]): 73%
coagulation factor X (coagulation factor X; [7]): 75%
coagulation factor X (coagulation factor X; [8]): 65%
coagulation factor X (coagulation factor X; [9]): 56%
coagulation factor X (coagulation factor X; [10]): 53%
coagulation factor X (coagulation factor X; [11]): 50%
coagulation factor IX (coagulation factor IX; [7]): 153%
coagulation factor IX (coagulation factor IX; [8]): 81%
coagulation factor IX (coagulation factor IX; [9]): 63%
coagulation factor IX (coagulation factor IX; [10]): 65%
coagulation factor IX (coagulation factor IX; [11]): 68%
coagulation factor XI (coagulation factor XI; [7]): 301%
coagulation factor XI (coagulation factor XI; [8]): 197%
coagulation factor XI (coagulation factor XI; [9]): 140%
coagulation factor XI (coagulation factor XI; [10]): 83%
coagulation factor XI (coagulation factor XI; [11]): 47%
direct action on the Factor XII of the coagulation system (coagulation factor XII): marked direct action
activity at 2000 µg/mL (coagulation factor XII; human, 10 mg. taurolin/5 ml. plasma (sample 2)): 177%
activity at 4000 µg/mL (coagulation factor XII; human, 20 mg. taurolin/5 ml. plasma (sample 3)): 77%
activity at 6000 µg/mL (coagulation factor XII; human, 30 mg. taurolin/5 ml. plasma (sample 4)): 64%
activity at 8000 µg/mL (coagulation factor XII; human, 40 mg. taurolin/5 ml. plasma (sample 5)): 55%
activity at 10000 µg/mL (coagulation factor XII; human, 50 mg. taurolin/5 ml. plasma (sample 6)): 61%
coagulation factor VIII (coagulation factor VIII; [7]): 48%
coagulation factor VIII (coagulation factor VIII; [8]): 21%
coagulation factor VIII (coagulation factor VIII; [9]): 13%
coagulation factor VIII (coagulation factor VIII; [10]): 6%
coagulation factor VIII (coagulation factor VIII; [11]): 6%
blood coagulation or fibrin deposition on the wall (fresh blood; cellulose acetate foil contacted with taurolin/blood plasma mixture (taurolin 1% in plasma), rinsed, fresh blood 30 minutes at 37° C.): no blood coagulation or fibrin deposition on the wall
fibrin fibre deposition on the surface (electron raster photographs) (fresh blood; cellulose acetate foil treated with 15 aqueous solution of taurolin 30 minutes at 37° C., then fresh blood 30 minutes at 37° C.): no fibrin fibre deposition on the surface could be ascertained
solubility (solubility): 10000 µg/mL (≈ 35.2 mM)
function of antithrombin III (antithrombin III): inhibits dependent upon concentration
suppression of blood coagulation (blood plasma [3]): not completely suppressed
deposition of blood coagula on the artificial surface in vivo [4]: continuously effectively prevents the deposition of blood coagula; also recorded: effectively continuously prevents the deposition of blood coagula
solubility in water [5]: about 1%
influence on blood coagulation as stated in the literature (blood plasma [6]): does not influence the blood coagulation

heparin
suppression of blood coagulation (blood plasma [3]): completely suppressed
